Measurements as given in patent publication US12612409B2, “Pyrrolopyrimidines as CFTR potentiators” (Cystic Fibrosis Foundation, priority 2016, dated 2026).

What was measured:
[1] = target: T1, CFTR in F508del/F508del primary CF hBE cells (Homo sapiens, UniProt P13569, DEL508-508); experiment: Ussing chamber electrophysiology assay of CFTR potentiation in F508del/F508del CF bronchial epithelial cells (27° C.); type: cell-based
T1 construct: Primary cystic fibrosis human bronchial epithelial (CF hBE) cells were expanded and cultured; endogenous in cells; host or cells: primary CF human bronchial epithelial cells, genotype F508del/F508del
T1 sequence (P13569 with tags, fused parts or gaps DEL508-508): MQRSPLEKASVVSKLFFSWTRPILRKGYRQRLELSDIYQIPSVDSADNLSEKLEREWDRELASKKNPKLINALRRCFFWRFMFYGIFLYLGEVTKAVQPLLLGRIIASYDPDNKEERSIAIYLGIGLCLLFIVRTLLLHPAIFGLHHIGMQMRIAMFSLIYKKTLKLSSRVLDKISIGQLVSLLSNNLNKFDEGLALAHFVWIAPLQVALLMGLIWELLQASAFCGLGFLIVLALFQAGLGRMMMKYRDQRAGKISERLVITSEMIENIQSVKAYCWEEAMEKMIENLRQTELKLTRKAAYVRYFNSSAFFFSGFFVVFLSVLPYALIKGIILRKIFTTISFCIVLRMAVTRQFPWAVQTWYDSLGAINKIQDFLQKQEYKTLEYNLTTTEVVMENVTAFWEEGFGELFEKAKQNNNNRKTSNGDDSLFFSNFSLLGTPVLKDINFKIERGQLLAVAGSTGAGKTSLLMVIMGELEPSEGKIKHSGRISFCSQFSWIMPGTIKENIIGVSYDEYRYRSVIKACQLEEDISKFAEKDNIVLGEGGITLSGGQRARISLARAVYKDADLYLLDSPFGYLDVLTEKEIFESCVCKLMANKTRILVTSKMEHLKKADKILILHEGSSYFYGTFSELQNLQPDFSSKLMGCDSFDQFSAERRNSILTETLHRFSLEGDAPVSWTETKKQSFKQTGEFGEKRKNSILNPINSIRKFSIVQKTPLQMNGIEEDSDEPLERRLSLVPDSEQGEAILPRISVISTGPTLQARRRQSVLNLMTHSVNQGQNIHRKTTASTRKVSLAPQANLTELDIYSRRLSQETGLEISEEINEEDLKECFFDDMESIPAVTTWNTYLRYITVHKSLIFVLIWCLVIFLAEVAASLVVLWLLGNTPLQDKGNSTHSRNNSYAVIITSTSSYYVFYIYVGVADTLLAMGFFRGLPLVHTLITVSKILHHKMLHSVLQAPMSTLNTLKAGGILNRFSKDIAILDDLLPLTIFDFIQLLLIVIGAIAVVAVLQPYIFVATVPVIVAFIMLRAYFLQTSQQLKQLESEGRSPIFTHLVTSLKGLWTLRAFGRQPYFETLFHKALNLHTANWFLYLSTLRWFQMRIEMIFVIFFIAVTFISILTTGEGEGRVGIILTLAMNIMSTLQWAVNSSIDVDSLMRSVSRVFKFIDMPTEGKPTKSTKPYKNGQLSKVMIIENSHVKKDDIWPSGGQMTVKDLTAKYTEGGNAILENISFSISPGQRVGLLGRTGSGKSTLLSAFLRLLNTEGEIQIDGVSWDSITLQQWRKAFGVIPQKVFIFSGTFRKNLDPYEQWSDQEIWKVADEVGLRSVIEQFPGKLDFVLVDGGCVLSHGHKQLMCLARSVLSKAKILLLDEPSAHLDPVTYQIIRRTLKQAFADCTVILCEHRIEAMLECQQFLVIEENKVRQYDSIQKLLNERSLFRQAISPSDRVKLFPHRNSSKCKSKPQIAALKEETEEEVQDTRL
Method in brief: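 Short-circuit current was recorded under zero-voltage clamp across primary CF bronchial epithelia cultured >30 days at air/liquid interface, bathed apically and basolaterally in HEPES-buffered saline. Sequential additions: amiloride (30 uM), forskolin (10 uM), compound at 4 increasing levels, CFTRinh-172 (20 uM). Responses normalised between DMSO (0%) and maximal positive-control potentiator (100%).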

[2] = target: T2, recombinant F508del V470 CFTR in Fischer rat thyroid (FRT) cells (Homo sapiens, UniProt P13569, DEL508-508); experiment: FRT ion flux assay of F508del CFTR potentiation; type: cell-based; settings: FRT cells expressing F508del V470 CFTR, forskolin 20 uM, 27° C. pre-incubation
T2 construct: expressed in transfected cells
T2 sequence (P13569 with tags, fused parts or gaps DEL508-508): as above
Method in brief: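 Potentiation read as YFP quench ~21 s after iodide buffer addition, as second/initial fluorescence ratio normalised between DMSO (0%) and reference potentiator (100%).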

Structure (SMILES) | EC50 [1] | EC50 [2]
CCC(c1cn(-c2ccc(F)c(F)c2)nn1)n1c(C#N)c(-c2cnc(C(F)(F)F)nc2)c2c(N)ncnc21 (single isomer, unassigned; enantiomer 1) [Example 322, 4-Amino-7-{1-[1-(3,4-difluorophenyl)-1H-1,2,3-triazol-4-yl]propyl}-5-[2-(trifluoromethyl)pyrimidin-5-yl]-7H-pyrrolo[2,3-d]pyrimidine-6-carbonitrile, enantiomer 1] | 33.8 nM | 49.9 nM
CCC(c1cn(-c2ccccc2F)nn1)n1cc(C2CC2)c2c(N)ncnc21 (single isomer, unassigned; enantiomer 2) [Example 316, (+) 5-Cyclopropyl-7-{1-[1-(2-fluorophenyl)-1H-1,2,3-triazol-4-yl]propyl}-7H-pyrrolo[2,3-d]pyrimidin-4-amine, enantiomer 2] | 541 nM | 754 nM
COc1nc(C(F)(F)F)ccc1-c1cn(Cc2cn(-c3ccccc3F)nn2)c2ncnc(N)c12 [Example 206, 7-{[1-(2-fluorophenyl)-1H-1,2,3-triazol-4-yl]methyl}-5-[2-methoxy-6-(trifluoromethyl)pyridin-3-yl]-7H-pyrrolo[2,3-d]pyrimidin-4-amine] | 10.8 nM | 22.9 nM
Nc1ncnc2c1c(-c1cnc(C(F)(F)F)nc1)c(Br)n2Cc1cnn(-c2ccccc2F)c1 [Example 40, 6-bromo-7-{[1-(2-fluorophenyl)-1H-pyrazol-4-yl]methyl}-5-[2-(trifluoromethyl)pyrimidin-5-yl]-7H-pyrrolo[2,3-d]pyrimidin-4-amine] | 1.3 nM | 2.18 nM
CCC(c1cn(-c2ccccc2F)nn1)n1cc(-c2cnc(C(F)(F)F)nc2)c2c(N)ncnc21 (single isomer, unassigned; enantiomer 1) [Example 137, 7-{1-[1-(2-Fluorophenyl)-1H-1,2,3-triazol-4-yl]propyl}-5-[2-(trifluoromethyl)pyrimidin-5-yl]-7H-pyrrolo[2,3-d]pyrimidin-4-amine, enantiomer 1] | 10.3 nM | 5.86 nM
CCC(c1cn(-c2ccc(F)cc2F)nn1)n1cc(-c2cc(F)cnc2OC)c2c(N)ncnc21 (single isomer, unassigned; enantiomer 1) [Example 163, 7-{1-[1-(2,4-Difluorophenyl)-1H-1,2,3-triazol-4-yl]propyl}-5-(5-fluoro-2-methoxypyridin-3-yl)-7H-pyrrolo[2,3-d]pyrimidin-4-amine, enantiomer 1] | 97.1 nM | 296 nM
COc1ncccc1-c1cn(C(C)c2cn(-c3ccccc3F)nn2)c2ncnc(N)c12 (stereo not shown) [Example 215, 7-{1-[1-(2-Fluorophenyl)-1H-1,2,3-triazol-4-yl]ethyl}-5-(2-methoxypyridin-3-yl)-7H-pyrrolo [2,3-d]pyrimidin-4-amine] | 184 nM | 79.3 nM
CC(=O)c1ccc(-c2cn(C(C)c3cn(-c4ccccc4F)nn3)c3ncnc(N)c23)cc1 (stereo not shown) [Example 96, 1-[4-(4-Amino-7-{1-[1-(2-fluorophenyl)-1H-1,2,3-triazol-4-yl]ethyl}-7H-pyrrolo[2,3-d]pyrimidin-5-yl)phenyl]ethanone] | 133 nM | 98.6 nM
Nc1ncnc2c1c(C1CC1)cn2Cc1cn(-c2ccccc2F)nn1 [Example 289, 5-Cyclopropyl-7-{[1-(2-fluorophenyl)-1H-1,2,3-triazol-4-yl]methyl}-7H-pyrrolo[2,3-d]pyrimidin-4-amine] | 342 nM | 142 nM
CCC(c1cn(-c2cccc(F)c2F)nn1)n1cc(-c2cnc(C(F)(F)F)nc2)c2c(N)ncnc21 (single isomer, unassigned) [Example 188, 7-{1-[1-(2,3-Difluorophenyl)-1H-1,2,3-triazol-4-yl]propyl}-5-[2-(trifluoromethyl)pyrimidin-5-yl]-7H-pyrrolo[2,3-d]pyrimidin-4-amine] | 243 nM | 551 nM
CCC(c1cn(-c2ccccc2F)nn1)n1cc(-c2cnc(C(F)(F)F)nc2)c2c(N)ncnc21 (single isomer, unassigned; enantiomer 2) [Example 138, 7-{1-[1-(2-Fluorophenyl)-1H-1,2,3-triazol-4-yl]propyl}-5-[2-(trifluoromethyl)pyrimidin-5-yl]-7H-pyrrolo[2,3-d]pyrimidin-4-amine, enantiomer 2] | 261 nM | 266 nM

Continued, values first:

EC50 [1] | EC50 [2] | Structure (SMILES)
111 nM | 250 nM | CCC(c1cn(-c2cc(F)cc(F)c2)nn1)n1cc(-c2cnc(C(F)(F)F)nc2)c2c(N)ncnc21 (single isomer, unassigned; enantiomer 1) [Example 311, 7-{1-[1-(3,5-Difluorophenyl)-1H-1,2,3-triazol-4-yl]propyl}-5-[2-(trifluoromethyl)pyrimidin-5-yl]-7H-pyrrolo[2,3-d]pyrimidin-4-amine, enantiomer 1]
453 nM | 154 nM | COc1ncncc1-c1cn(C(c2cn(-c3ccccc3F)nn2)C2CC2)c2ncnc(N)c12 (single isomer, unassigned; enantiomer 2) [Example 300, (−) 7-{Cyclopropyl[1-(2-fluorophenyl)-1H-1,2,3-triazol-4-yl]methyl}-5-(4-methoxypyrimidin-5-yl)-7H-pyrrolo[2,3-d]pyrimidin-4-amine, enantiomer 2]
9 nM | 6.39 nM | CCC(c1cn(-c2ccc(F)cc2F)nn1)n1c(C#N)c(-c2cnc(C(F)(F)F)nc2)c2c(N)ncnc21 (single isomer, unassigned) [Example 16, 4-Amino-7-{1-[1-(2,4-difluorophenyl)-1H-1,2,3-triazol-4-yl]propyl}-5-[2-(trifluoromethyl)pyrimidin-5-yl]-7H-pyrrolo[2,3-d] pyrimidin-6-carbonitrile]
0.56 nM | 0.61 nM | CCC(c1cnn(-c2ccccc2F)c1)n1c(C#N)c(-c2cnc(C(F)(F)F)nc2)c2c(N)ncnc21 (single isomer, unassigned) [Example 4, 4-Amino-7-{1-[1-(2-fluorophenyl)-1H-pyrazol-4-yl]propyl}-5-[2-(trifluoromethyl)pyrimidin-5-yl]-7H-pyrrolo[2,3-d] pyrimidine-6-carbonitrile]
135 nM | 190 nM | CCC(c1cn(-c2ccccc2F)nn1)n1cc(-c2cncnc2OC)c2c(N)nc(C)nc21 (single isomer, unassigned; enantiomer 2) [Example 304, (−) 7-{1-[1-(2-fluorophenyl)-1H-1,2,3-triazol-4-yl]propyl}-5-(4-methoxypyrimidin-5-yl)-2-methyl-7H-pyrrolo[2,3-d]pyrimidin-4-amine, enantiomer 2]
706 nM | 1200 nM | CC(c1cn(-c2ccccc2F)nn1)n1cc(C2CC2)c2c(N)ncnc21 (single isomer, unassigned) [Example 108, 5-Cyclopropyl-7-{1-[1-(2-fluorophenyl)-1H-1,2,3-triazol-4-yl]ethyl}-7H-pyrrolo[2,3-d]pyrimidin-4-amine]
106 nM | 204 nM | CCC(c1cnn(-c2ccccc2F)c1)n1cc(-c2cnc(C(F)(F)F)nc2)c2c(N)ncnc21 (single isomer, unassigned; enantiomer 2) [Example 176, 7-{(1-[1-(2-Fluorophenyl)-1H-pyrazol-4-yl]propyl}-5-[2-(trifluoromethyl)pyrimidin-5-yl]-7H-pyrrolo[2,3-d]pyrimidin-4-amine, enantiomer 2]
140 nM | 422 nM | CC(C)n1cc(Cn2cc(-c3ccc(Cl)cc3)c3c(N)ncnc32)cn1 [Example 254, 5-(4-Chlorophenyl)-7-{[1-(propan-2-yl)-1H-pyrazol-4-yl]methyl}-7H-pyrrolo[2,3-d]pyrimidin-4-amine]
4.58 nM | 8.18 nM | CCC(c1cn(-c2ccc(F)cc2F)nn1)n1cc(-c2cc(F)cnc2OC)c2c(N)ncnc21 (single isomer, unassigned; enantiomer 2) [Example 164, 7-{1-[1-(2,4-Difluorophenyl)-1H-1,2,3-triazol-4-yl]propyl}-5-(5-fluoro-2-methoxypyridin-3-yl)-7H-pyrrolo[2,3-d]pyrimidin-4-amine, enantiomer 2]
55 nM | 404 nM | Cc1cccc(-n2cc(C(C)n3cc(-c4ccc(Cl)cc4)c4c(N)ncnc43)nn2)c1 (stereo not shown) [Example 208, 5-(4-Chlorophenyl)-7-{1-[1-(3-methylphenyl)-1H-1,2,3-triazol-4-yl]ethyl}-7H-pyrrolo[2,3-d]pyrimidin-4-amine]
89.2 nM | 30 nM | CC(c1cn(-c2ccccc2F)nn1)n1cc(-c2cc[nH]n2)c2c(N)ncnc21 (single isomer, unassigned; enantiomer 1) [Example 121, 7-{1-[1-(2-Fluorophenyl)-1H-1,2,3-triazol-4-yl]ethyl}-5-(1H-pyrazol-3-yl)-7H-pyrrolo[2,3-d]pyrimidin-4-amine, enantiomer 1]
305 nM | 509 nM | COc1ncc(-c2cn(C(C)c3cc(-c4ccccc4F)no3)c3ncnc(N)c23)cn1 (single isomer, unassigned; (-)) [Example 183, (−) 7-{1-[3-(2-fluorophenyl)-1,2-oxazol-5-yl]ethyl}-5-(2-methoxypyrimidin-5-yl)-7H-pyrrolo[2,3-d]pyrimidin-4-amine]
